Data: PubChem BioAssay AID248 (DTP/NCI, 2004)
Values joined by “and” are separate entries in the source; they are usually repeats but may differ in a detail not shown here. Equal values may be shown once. Toxic doses and inconclusive results are not listed. Cut-off read from the data, not from the text of the source: active = T/C of 150% or more; inactive = T/C below 125%.

Tested on: L1210 leukemia ip in BDF1 mice, survival T/C
Experiment: NCI In Vivo Anticancer Drug Screen. Data for tumor model L1210 Leukemia (intraperitoneal) in B6D2F1 (BDF1) mice
Conditions: endpoint: mean survival time, higher = longer survival
Procedure, shortened: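 Mice bearing the transplanted tumor received compound or vehicle. Survival of the treated group was divided by that of the vehicle-treated control group to give the ratio.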

[1] = dose: 100.0 mg/kg/injection, schedule: Q04DX003 (ip), vehicle: saline sonified
[2] = dose: 12.5 mg/kg/injection, schedule: Q01DX009 (ip), vehicle: saline
[3] = dose: 25.0 mg/kg/injection, schedule: Q01DX009 (ip), vehicle: saline
[4] = dose: 50.0 mg/kg/injection, schedule: Q01DX009 (ip), vehicle: saline
[5] = dose: 100.0 mg/kg/injection, schedule: Q04DX003 (ip), vehicle: saline with Tween-80
[6] = dose: 200.0 mg/kg/injection, schedule: Q04DX003 (ip), vehicle: saline with Tween-80
[7] = dose: 400.0 mg/kg/injection, schedule: Q04DX003 (ip), vehicle: saline with Tween-80
[8] = dose: 100.0 mg/kg/injection, schedule: Q04DX002 (ip), vehicle: Klucel (hydroxypropylcellulose) (HPC)
[9] = dose: 200.0 mg/kg/injection, schedule: Q04DX002 (ip), vehicle: Klucel (hydroxypropylcellulose) (HPC)
[10] = dose: 400.0 mg/kg/injection, schedule: Q04DX002 (ip), vehicle: Klucel (hydroxypropylcellulose) (HPC)
[11] = dose: 100.0 mg/kg/injection, schedule: Q04DX003 (ip), vehicle: saline
[12] = dose: 200.0 mg/kg/injection, schedule: Q04DX003 (ip), vehicle: saline
[13] = dose: 400.0 mg/kg/injection, schedule: Q04DX003 (ip), vehicle: saline
[14] = dose: 25.0 mg/kg/injection, schedule: Q04DX003 (ip), vehicle: saline
[15] = dose: 50.0 mg/kg/injection, schedule: Q04DX003 (ip), vehicle: saline
[16] = dose: 100.0 mg/kg/injection, schedule: Q01DX009 (ip), vehicle: saline
[17] = dose: 200.0 mg/kg/injection, schedule: Q01DX009 (ip), vehicle: saline
[18] = dose: 100.0 mg/kg/injection, schedule: Q01DX001 (ip), vehicle: saline
[19] = dose: 200.0 mg/kg/injection, schedule: Q01DX001 (ip), vehicle: saline
[20] = dose: 400.0 mg/kg/injection, schedule: Q01DX001 (ip), vehicle: saline
[21] = dose: 100.0 mg/kg/injection, schedule: Q01DX001 (ip), vehicle: carboxymethylcellulose (CMC)
[22] = dose: 200.0 mg/kg/injection, schedule: Q01DX001 (ip), vehicle: carboxymethylcellulose (CMC)
[23] = dose: 400.0 mg/kg/injection, schedule: Q01DX001 (ip), vehicle: carboxymethylcellulose (CMC)

Measured: T/C

Clc1ccc(CC23CCCCC2N3)cc1 (stereo not given)
inactive: [1] 95 % of control | dose: 200.0 mg/kg/injection, schedule: Q04DX003 (ip), vehicle: saline sonified 108 % of control | dose: 400.0 mg/kg/injection, schedule: Q04DX003 (ip), vehicle: saline sonified 105 % of control

NC(CSC(c1ccccc1)(c1ccccc1)c1ccc(-c2ccccc2)cc1)C(=O)O (stereo not given)
inactive: [2] 103 % of control | [3] 104 % of control | [4] 107 % of control

CC(c1ccc2ccccc2c1)C1CCCCC1C(=O)O (stereo not given)
inactive: [5] 96 % of control | [6] 97 % of control | [7] 94 % of control

Cc1ccc(S/C(=N\O)C(C)C)cc1
inactive: [8] 108 % of control | [9] 92 % of control | [10] 110 % of control

O=C(Nc1ccccc1Cl)N(C1CCCCC1)C1CCCCC1
inactive: [8] 103 % of control | [9] 100 % of control | [10] 106 % of control

CC(=O)Nc1ccc(P(=O)(O)O)cc1[N+](=O)[O-]
inactive: [11] 91 % of control | [12] 102 % of control | [13] 115 % of control

O=C(O)C(O)C(O)C(=O)O.O=C(O)C(O)C(O)C(=O)O.[O]=[V].[O]=[V] (stereo not given)
inactive: dose: 6.25 mg/kg/injection, schedule: Q01DX009 (ip), vehicle: saline 101 % of control and 110 % of control | dose: 6.25 mg/kg/injection, schedule: Q04DX003 (ip), vehicle: saline 92 % of control and 106 % of control | [2] 101 % of control and 96 % of control | dose: 12.5 mg/kg/injection, schedule: Q04DX003 (ip), vehicle: saline 92 % of control and 96 % of control | [3] 98 % of control and 94 % of control | [14] 96 % of control and 97 % of control and 109 % of control | [15] 104 % of control | [1] 91 % of control

CCOC(=O)c1ccc(Nc2sc(C(=O)c3ccc(-c4ccccc4)cc3)c(N)c2C#N)cc1
inactive: dose: 100.0 mg/kg/injection, schedule: Q04DX002 (ip), vehicle: saline with Tween-80 92 % of control | dose: 200.0 mg/kg/injection, schedule: Q04DX002 (ip), vehicle: saline with Tween-80 86 % of control | dose: 400.0 mg/kg/injection, schedule: Q04DX002 (ip), vehicle: saline with Tween-80 95 % of control

CC1(C)CCCC2(C)C3Cc4occc4C(C(=O)O)C3C(O)C(O)C12 (stereo not given)
inactive: [5] 106 % of control | [6] 109 % of control | [7] 98 % of control

O=S(=O)(O)c1ccc(O)c2ncccc12
inactive: [11] 95 % of control | [12] 101 % of control | [13] 101 % of control

CC#CC(C)=O
inactive: [14] 100 % of control | [15] 92 % of control | [11] 100 % of control

ClC1OCCOC1Cl (stereo not given)
inactive: [4] 102 % of control | [16] 91 % of control | [11] 92 % of control | [17] 100 % of control

CC1(O)c2cccc3c2C2(O)c4c1cccc4C(C)(O)c1cccc(c12)C3(C)O (stereo not given)
inactive: dose: 100.0 mg/kg/injection, schedule: Q01DX009 (ip), vehicle: saline with Tween-80 106 % of control | [5] 103 % of control and 108 % of control | dose: 200.0 mg/kg/injection, schedule: Q01DX009 (ip), vehicle: saline with Tween-80 105 % of control | [6] 114 % of control and 110 % of control | [7] 95 % of control and 101 % of control

COc1ccc2c(c1)C1(C)CCCC(C)(C(=O)O)C1C(Br)C2=O (stereo not given)
inactive: [18] 104 % of control | [19] 101 % of control | [20] 102 % of control

CONC(N)=O
inactive: dose: 100.0 mg/kg/injection, schedule: Q01DX Z (ip), vehicle: carboxymethylcellulose (CMC) 100 % of control | dose: 200.0 mg/kg/injection, schedule: Q01DX Z (ip), vehicle: carboxymethylcellulose (CMC) 98 % of control | dose: 350.0 mg/kg/injection, schedule: Q01DX Z (ip), vehicle: carboxymethylcellulose (CMC) 100 % of control and 101 % of control | dose: 500.0 mg/kg/injection, schedule: Q01DX Z (ip), vehicle: carboxymethylcellulose (CMC) 98 % of control | dose: 750.0 mg/kg/injection, schedule: Q01DX Z (ip), vehicle: carboxymethylcellulose (CMC) 98 % of control

c1ccc(C[N+]23CC[N+](Cc4ccccc4)(CC2)CC3)cc1
inactive: [4] 107 % of control | [16] 111 % of control | [11] 97 % of control | [17] 114 % of control | [12] 100 % of control

C[C@@H](c1ccccc1)[C@@H](C(=O)O)c1ccccc1
inactive: dose: 50.0 mg/kg/injection, schedule: Q01DX001 (ip), vehicle: saline 109 % of control | [18] 94 % of control | [19] 97 % of control | [20] 97 % of control

COP(=O)(O)C(C)=O (tested in a mixture with another compound)
inactive: dose: 100.0 mg/kg/injection, schedule: Q04DX002 (ip), vehicle: other 96 % of control | dose: 200.0 mg/kg/injection, schedule: Q04DX002 (ip), vehicle: other 114 % of control | dose: 400.0 mg/kg/injection, schedule: Q04DX002 (ip), vehicle: other 101 % of control

CC(C)(CO)N=Cc1cccc(Br)c1
inactive: [18] 96 % of control | [19] 98 % of control | [20] 98 % of control

O=C(O)c1cc(-c2cccs2)c(C(=O)O)s1
inactive: dose: 100.0 mg/kg/injection, schedule: Q04DX003 (ip), vehicle: other 103 % of control | dose: 200.0 mg/kg/injection, schedule: Q04DX003 (ip), vehicle: other 93 % of control

NC(=O)CNC(c1ccccc1)C(O)c1ccccc1 (stereo not given)
inactive: dose: 100.0 mg/kg/injection, schedule: Q01DX009 (ip), vehicle: Klucel (hydroxypropylcellulose) (HPC) 96 % of control | [8] 91 % of control | dose: 200.0 mg/kg/injection, schedule: Q01DX009 (ip), vehicle: Klucel (hydroxypropylcellulose) (HPC) 98 % of control | [9] 102 % of control | dose: 400.0 mg/kg/injection, schedule: Q01DX009 (ip), vehicle: Klucel (hydroxypropylcellulose) (HPC) 93 % of control | [10] 102 % of control

Nc1ccc2c(c1)/C(=N/O)c1cc([N+](=O)[O-])ccc1-2
inactive: [21] 100 % of control | [22] 105 % of control | [23] 112 % of control

O=C(NC1CC2c3ccccc3C1c1ccccc12)NC1CC2c3ccccc3C1c1ccccc12 (stereo not given)
inactive: dose: 100.0 mg/kg/injection, schedule: Q04DX003 (ip), vehicle: Klucel (hydroxypropylcellulose) (HPC) 94 % of control | dose: 200.0 mg/kg/injection, schedule: Q04DX003 (ip), vehicle: Klucel (hydroxypropylcellulose) (HPC) 89 % of control | dose: 400.0 mg/kg/injection, schedule: Q04DX003 (ip), vehicle: Klucel (hydroxypropylcellulose) (HPC) 98 % of control

ClCc1ccc(CCl)cc1
inactive: dose: 56.25 mg/kg/injection, schedule: Q01DX009 (ip), vehicle: Klucel (hydroxypropylcellulose) (HPC) 101 % of control | dose: 112.5 mg/kg/injection, schedule: Q01DX009 (ip), vehicle: Klucel (hydroxypropylcellulose) (HPC) 98 % of control | dose: 150.0 mg/kg/injection, schedule: Q04DX003 (ip), vehicle: Klucel (hydroxypropylcellulose) (HPC) 105 % of control | dose: 225.0 mg/kg/injection, schedule: Q01DX009 (ip), vehicle: Klucel (hydroxypropylcellulose) (HPC) 87 % of control | dose: 225.0 mg/kg/injection, schedule: Q04DX003 (ip), vehicle: Klucel (hydroxypropylcellulose) (HPC) 97 % of control

CCN(CC)Cc1c(C)[nH]c2c(OC)cccc2c1=O
inactive: dose: 25.0 mg/kg/injection, schedule: Q04DX003 (ip), vehicle: water 103 % of control | dose: 50.0 mg/kg/injection, schedule: Q04DX003 (ip), vehicle: water 97 % of control | dose: 100.0 mg/kg/injection, schedule: Q01DX009 (ip), vehicle: water 101 % of control | dose: 100.0 mg/kg/injection, schedule: Q04DX003 (ip), vehicle: water 100 % of control and 102 % of control

COc1ccc2c(C)c(Br)sc2c1
inactive: [21] 89 % of control | [22] 94 % of control | [23] 94 % of control

Cc1ccc(S(=O)(=O)N(CCC(=N)N)C(C)C)cc1
inactive: [3] 91 % of control | [4] 96 % of control | [16] 96 % of control | [11] 104 % of control
